What was measured:
Assay type in all cases: functional
[1] = tested on: Malme-3M; assay: Cytotoxicity against human MALME-3M cells assessed as cell growth at 0.01 uM after 48 hrs by sulforhodamine B assay relative to control; conditions: read-out: Activity
[2] = tested on: SR; assay: Cytotoxicity against human SR cells assessed as cell growth at 0.01 uM after 48 hrs by sulforhodamine B assay relative to control; conditions: read-out: Activity
[3] = tested on: BT-549; assay: Cytotoxicity against human BT549 cells assessed as cell growth at 0.01 uM after 48 hrs by sulforhodamine B assay relative to control; conditions: BT-549, 48 h, read-out: Activity
[4] = tested on: SK-MEL-5; assay: Cytotoxicity against human SK-MEL-5 cells assessed as cell growth at 0.01 uM after 48 hrs by sulforhodamine B assay relative to control; conditions: SK-MEL-5, 48 h, read-out: Activity
[5] = tested on: UO-31; assay: Cytotoxicity against human UO31 cells assessed as cell growth at 0.01 uM after 48 hrs by sulforhodamine B assay relative to control; conditions: UO-31, 48 h, read-out: Activity
[6] = tested on: MDA-MB-231; assay: Cytotoxicity against human MDA-MB-231 cells assessed as growth inhibition after 48 hrs by sulforhodamine B assay; conditions: MDA-MB-231, 48 h
[7] = tested on: PC-3; assay: Cytotoxicity against human PC3 cells assessed as cell growth at 10 uM after 48 hrs by sulforhodamine B assay relative to control; conditions: PC-3, 48 h, read-out: Activity
[8] = tested on: M14; assay: Cytotoxicity against human M14 cells assessed as cell growth at 10 uM after 48 hrs by sulforhodamine B assay relative to control; conditions: M14, 48 h, read-out: Activity
[9] = tested on: NCI/ADR-RES; assay: Cytotoxicity against human NCI/ADR-RES cells assessed as cell growth at 10 uM after 48 hrs by sulforhodamine B assay relative to control; conditions: read-out: Activity
[10] = tested on: IGROV-1; assay: Cytotoxicity against human IGROV1 cells assessed as growth inhibition after 48 hrs by sulforhodamine B assay; conditions: IGROV-1, 48 h
[11] = tested on: UO-31; assay: Cytotoxicity against human UO31 cells assessed as cell growth at 0.1 uM after 48 hrs by sulforhodamine B assay relative to control; conditions: UO-31, 48 h, read-out: Activity
[12] = tested on: NCI-H23; assay: Cytotoxicity against human NCI-H23 cells assessed as growth inhibition after 48 hrs by sulforhodamine B assay; conditions: NCI-H23, 48 h; for CC50: read-out: LC50 (the source's name)
[13] = tested on: HL-60(TB); assay: Cytotoxicity against human HL-60(TB) cells assessed as growth inhibition after 48 hrs by sulforhodamine B assay; conditions: HL-60, 48 h
[14] = tested on: NCI-H226; assay: Cytotoxicity against human NCI-H226 cells assessed as cell growth at 0.1 uM after 48 hrs by sulforhodamine B assay relative to control; conditions: NCI-H226, 48 h, read-out: Activity
[15] = tested on: HOP-62; assay: Cytotoxicity against human HOP62 cells assessed as cell growth at 0.1 uM after 48 hrs by sulforhodamine B assay relative to control; conditions: HOP-62, 48 h, read-out: Activity
[16] = tested on: HT-29; assay: Cytotoxicity against human HT-29 cells assessed as cell growth at 100 uM after 48 hrs by sulforhodamine B assay relative to control; conditions: HT-29, 48 h, read-out: Activity
[17] = tested on: OVCAR-4; assay: Cytotoxicity against human OVCAR4 cells assessed as cell growth at 1 uM after 48 hrs by sulforhodamine B assay relative to control; conditions: OVCAR-4, 48 h, read-out: Activity
[18] = tested on: COLO 205; assay: Cytotoxicity against human COLO205 cells assessed as growth inhibition after 48 hrs by sulforhodamine B assay; conditions: COLO 205, 48 h
[19] = tested on: NCI-H322M; assay: Cytotoxicity against human NCI-H322M cells assessed as cell growth at 0.01 uM after 48 hrs by sulforhodamine B assay relative to control; conditions: read-out: Activity
[20] = tested on: NCI-H226; assay: Cytotoxicity against human NCI-H226 cells assessed as cell growth at 1 uM after 48 hrs by sulforhodamine B assay relative to control; conditions: NCI-H226, 48 h, read-out: Activity
[21] = tested on: COLO 205; assay: Cytotoxicity against human COLO205 cells assessed as cell growth at 0.01 uM after 48 hrs by sulforhodamine B assay relative to control; conditions: COLO 205, 48 h, read-out: Activity
[22] = tested on: HT-29; assay: Cytotoxicity against human HT-29 cells assessed as cell growth at 1 uM after 48 hrs by sulforhodamine B assay relative to control; conditions: HT-29, 48 h, read-out: Activity
[23] = tested on: A498; assay: Cytotoxicity against human A498 cells assessed as cell growth at 0.1 uM after 48 hrs by sulforhodamine B assay relative to control; conditions: A498, 48 h, read-out: Activity
[24] = tested on: NCI/ADR-RES; assay: Cytotoxicity against human NCI/ADR-RES cells assessed as growth inhibition after 48 hrs by sulforhodamine B assay
[25] = tested on: HT-29; assay: Cytotoxicity against human HT-29 cells assessed as cell growth at 10 uM after 48 hrs by sulforhodamine B assay relative to control; conditions: HT-29, 48 h, read-out: Activity
[26] = tested on: UO-31; assay: Cytotoxicity against human UO31 cells assessed as cell growth at 100 uM after 48 hrs by sulforhodamine B assay relative to control; conditions: UO-31, 48 h, read-out: Activity
[27] = tested on: MDA-MB-435; assay: Cytotoxicity against human MDA-MB-435 cells assessed as cell growth at 0.1 uM after 48 hrs by sulforhodamine B assay relative to control; conditions: MDA-MB-435, 48 h, read-out: Activity
[28] = tested on: MCF7; assay: Cytotoxicity against human MCF7 cells assessed as cell growth at 100 uM after 48 hrs by sulforhodamine B assay relative to control; conditions: MCF7, 48 h, read-out: Activity
[29] = tested on: IGROV-1; assay: Cytotoxicity against human IGROV1 cells assessed as cell growth at 0.1 uM after 48 hrs by sulforhodamine B assay relative to control; conditions: IGROV-1, 48 h, read-out: Activity
[30] = tested on: CCRF-CEM; assay: Cytotoxicity against human CCRF-CEM cells assessed as growth inhibition after 48 hrs by sulforhodamine B assay
[31] = tested on: U-251; assay: Cytotoxicity against human U251 cells assessed as cell growth at 1 uM after 48 hrs by sulforhodamine B assay relative to control; conditions: U-251, 48 h, read-out: Activity
[32] = tested on: ACHN; assay: Cytotoxicity against human ACHN cells assessed as cell growth at 1 uM after 48 hrs by sulforhodamine B assay relative to control; conditions: read-out: Activity
[33] = tested on: MDA-MB-468; assay: Cytotoxicity against human MDA-MB-468 cells assessed as growth inhibition after 48 hrs by sulforhodamine B assay; conditions: MDA-MB-468, 48 h
[34] = tested on: Hs-578T; assay: Cytotoxicity against human Hs 578T cells assessed as cell growth at 1 uM after 48 hrs by sulforhodamine B assay relative to control; conditions: read-out: Activity
[35] = tested on: HOP-62; assay: Cytotoxicity against human HOP62 cells assessed as cell growth at 1 uM after 48 hrs by sulforhodamine B assay relative to control; conditions: HOP-62, 48 h, read-out: Activity
[36] = tested on: KM12; assay: Cytotoxicity against human KM12 cells assessed as growth inhibition after 48 hrs by sulforhodamine B assay; conditions: KM12, 48 h

COc1cc(-c2cc(/C=C/C(=O)c3ccc4c(c3)OCO4)[nH]n2)cc(OC)c1OC
growth at 0.01 µM [1]: 93% | growth at 0.01 µM [2]: 106% | growth at 0.01 µM [3]: 94% | growth at 0.01 µM [4]: 98% | growth at 0.01 µM [5]: 86% | LC50 [6]: > 100 µM | TGI [6]: > 100 µM | growth at 10 µM [7]: 6% | growth at 10 µM [8]: 15% | growth at 10 µM [9]: 23% | LC50 [10]: > 100 µM | TGI [10]: 62.1 µM | growth at 0.1 µM [11]: 83% | TGI [12]: > 100 µM | CC50 [12]: > 100 µM | LC50 [13]: > 100 µM | TGI [13]: 6.36 µM | growth at 0.1 µM [14]: 98% | growth at 0.1 µM [15]: 100% | growth at 100 µM [16]: -73% | growth at 1 µM [17]: 82% | LC50 [18]: 7.92 µM | TGI [18]: 3.85 µM | growth at 0.01 µM [19]: 94% | growth at 1 µM [20]: 89% | growth at 0.01 µM [21]: 105% | growth at 1 µM [22]: 103% | growth at 0.1 µM [23]: 79% | LC50 [24]: > 100 µM | TGI [24]: > 100 µM | growth at 10 µM [25]: -54% | growth at 100 µM [26]: -79% | growth at 0.1 µM [27]: 94% | growth at 100 µM [28]: 3% | growth at 0.1 µM [29]: 97% | LC50 (concentration killing 50% of cells) [30]: > 100 µM | TGI [30]: 5.95 µM | growth at 1 µM [31]: 85% | growth at 1 µM [32]: 96% | GI50 [33]: 1.4 µM | LC50 [33]: 5.82 µM | TGI [33]: 2.86 µM | growth at 1 µM [34]: 94% | growth at 1 µM [35]: 95%

COc1ccc(-c2cc(/C=C/C(=O)c3ccc(N)cc3)[nH]n2)cc1OC
growth at 0.01 µM [1]: 104% | growth at 0.01 µM [2]: 98% | growth at 0.01 µM [3]: 84% | growth at 0.01 µM [4]: 99% | growth at 0.01 µM [5]: 92% | GI50 [6]: 4.42 µM | LC50 [6]: 53.9 µM | TGI [6]: 17.2 µM | growth at 10 µM [7]: 20% | growth at 10 µM [8]: -42% | growth at 10 µM [9]: 37% | GI50 [10]: 4.56 µM | LC50 [10]: 73 µM | TGI [10]: 19 µM | growth at 0.1 µM [11]: 99% | GI50 [12]: 4.21 µM | TGI [12]: 19.3 µM | CC50 [12]: 95.6 µM | GI50 [13]: 3.45 µM | LC50 [13]: > 100 µM | TGI [13]: > 100 µM | growth at 0.1 µM [14]: 91% | growth at 0.1 µM [15]: 91% | growth at 100 µM [16]: -59% | growth at 1 µM [17]: 69% | GI50 [18]: 1.88 µM | LC50 [18]: 6.87 µM | TGI [18]: 3.59 µM | growth at 0.01 µM [19]: 96% | growth at 1 µM [20]: 86% | growth at 0.01 µM [21]: 92% | growth at 1 µM [22]: 99% | growth at 0.1 µM [23]: 80% | GI50 [36]: 1.68 µM | LC50 [36]: 6.67 µM | TGI [36]: 3.35 µM | GI50 [24]: 6.21 µM | LC50 [24]: > 100 µM | TGI [24]: > 100 µM | growth at 10 µM [25]: -19% | growth at 100 µM [26]: -85% | growth at 0.1 µM [27]: 98% | growth at 100 µM [28]: -58% | growth at 0.1 µM [29]: 106% | GI50 [30]: 1.74 µM | LC50 (concentration killing 50% of cells) [30]: > 100 µM | TGI [30]: 7.81 µM | growth at 1 µM [31]: 88% | growth at 1 µM [32]: 88% | GI50 [33]: 1.55 µM | LC50 [33]: 7.8 µM | TGI [33]: 3.48 µM | growth at 1 µM [34]: 96% | growth at 1 µM [35]: 92%

COc1cc(C(=O)/C=C/c2cc(-c3ccc4c(c3)OCO4)n[nH]2)cc(OC)c1OC
growth at 0.01 µM [1]: 94% | growth at 0.01 µM [2]: 97% | growth at 0.01 µM [3]: 97% | growth at 0.01 µM [4]: 99% | growth at 0.01 µM [5]: 85% | GI50 [6]: 2.08 µM | LC50 [6]: 23.8 µM | TGI [6]: 6.23 µM | growth at 10 µM [7]: -46% | growth at 10 µM [8]: -4% | growth at 10 µM [9]: 2% | GI50 [10]: 1.99 µM | LC50 [10]: 23.4 µM | TGI [10]: 5.72 µM | growth at 0.1 µM [11]: 82% | GI50 [12]: 2.9 µM | TGI [12]: 10.3 µM | CC50 [12]: 40.3 µM | GI50 [13]: 2.17 µM | LC50 [13]: > 100 µM | TGI [13]: 6.49 µM | growth at 0.1 µM [14]: 93% | growth at 0.1 µM [15]: 95% | growth at 100 µM [16]: -45% | growth at 1 µM [17]: 47% | GI50 [18]: 2.08 µM | LC50 [18]: 12.6 µM | TGI [18]: 4.66 µM | growth at 0.01 µM [19]: 101% | growth at 1 µM [20]: 70% | growth at 0.01 µM [21]: 100% | growth at 1 µM [22]: 96% | growth at 0.1 µM [23]: 90% | GI50 [36]: 1.86 µM | LC50 [36]: 7.97 µM | TGI [36]: 3.85 µM | GI50 [24]: 2.99 µM | LC50 [24]: > 100 µM | TGI [24]: 12.3 µM | growth at 10 µM [25]: -22% | growth at 100 µM [26]: -95% | growth at 0.1 µM [27]: 95% | growth at 100 µM [28]: -69% | growth at 0.1 µM [29]: 87% | GI50 [30]: 2 µM | LC50 (concentration killing 50% of cells) [30]: > 100 µM | TGI [30]: 5.74 µM | growth at 1 µM [31]: 63% | growth at 1 µM [32]: 99% | GI50 [33]: 1.4 µM | LC50 [33]: 8.78 µM | TGI [33]: 3.5 µM | growth at 1 µM [34]: 90% | growth at 1 µM [35]: 93%
